Among the data in patent US20240208992A1, “MACROCYCLES AS CFTR MODULATORS” (Idorsia Pharmaceuticals Ltd, priority 2021, published 2024) are EC50 and Emax values, retold here.

Molecules are shown by their SMILES.

The target in the assay is human F508del-CFTR (Homo sapiens, UniProt P13569, DEL508-508). The assay can be described thus: F508del-CFTR cell surface expression (corrector activity), DiscoveRx ß-galactosidase complementation chemiluminescence assay in recombinant U2OS cell line.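 For all read-outs here: U2OS cells co-expressing ProLink-tagged F508del-CFTR and a membrane-anchored enzyme acceptor, where more surface CFTR restores β-galactosidase activity measured by chemiluminescence.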 The conditions noted are these: for EC50: EC50, F508del-CFTR cell surface expression, U2OS cells, 16h compound incubation, geomean values; for Emax: U2OS, in relation to Emax of corrector lumacaftor (=100%), arithmetic mean values.
Chain of human F508del-CFTR (P13569 with tags, fused parts or gaps DEL508-508): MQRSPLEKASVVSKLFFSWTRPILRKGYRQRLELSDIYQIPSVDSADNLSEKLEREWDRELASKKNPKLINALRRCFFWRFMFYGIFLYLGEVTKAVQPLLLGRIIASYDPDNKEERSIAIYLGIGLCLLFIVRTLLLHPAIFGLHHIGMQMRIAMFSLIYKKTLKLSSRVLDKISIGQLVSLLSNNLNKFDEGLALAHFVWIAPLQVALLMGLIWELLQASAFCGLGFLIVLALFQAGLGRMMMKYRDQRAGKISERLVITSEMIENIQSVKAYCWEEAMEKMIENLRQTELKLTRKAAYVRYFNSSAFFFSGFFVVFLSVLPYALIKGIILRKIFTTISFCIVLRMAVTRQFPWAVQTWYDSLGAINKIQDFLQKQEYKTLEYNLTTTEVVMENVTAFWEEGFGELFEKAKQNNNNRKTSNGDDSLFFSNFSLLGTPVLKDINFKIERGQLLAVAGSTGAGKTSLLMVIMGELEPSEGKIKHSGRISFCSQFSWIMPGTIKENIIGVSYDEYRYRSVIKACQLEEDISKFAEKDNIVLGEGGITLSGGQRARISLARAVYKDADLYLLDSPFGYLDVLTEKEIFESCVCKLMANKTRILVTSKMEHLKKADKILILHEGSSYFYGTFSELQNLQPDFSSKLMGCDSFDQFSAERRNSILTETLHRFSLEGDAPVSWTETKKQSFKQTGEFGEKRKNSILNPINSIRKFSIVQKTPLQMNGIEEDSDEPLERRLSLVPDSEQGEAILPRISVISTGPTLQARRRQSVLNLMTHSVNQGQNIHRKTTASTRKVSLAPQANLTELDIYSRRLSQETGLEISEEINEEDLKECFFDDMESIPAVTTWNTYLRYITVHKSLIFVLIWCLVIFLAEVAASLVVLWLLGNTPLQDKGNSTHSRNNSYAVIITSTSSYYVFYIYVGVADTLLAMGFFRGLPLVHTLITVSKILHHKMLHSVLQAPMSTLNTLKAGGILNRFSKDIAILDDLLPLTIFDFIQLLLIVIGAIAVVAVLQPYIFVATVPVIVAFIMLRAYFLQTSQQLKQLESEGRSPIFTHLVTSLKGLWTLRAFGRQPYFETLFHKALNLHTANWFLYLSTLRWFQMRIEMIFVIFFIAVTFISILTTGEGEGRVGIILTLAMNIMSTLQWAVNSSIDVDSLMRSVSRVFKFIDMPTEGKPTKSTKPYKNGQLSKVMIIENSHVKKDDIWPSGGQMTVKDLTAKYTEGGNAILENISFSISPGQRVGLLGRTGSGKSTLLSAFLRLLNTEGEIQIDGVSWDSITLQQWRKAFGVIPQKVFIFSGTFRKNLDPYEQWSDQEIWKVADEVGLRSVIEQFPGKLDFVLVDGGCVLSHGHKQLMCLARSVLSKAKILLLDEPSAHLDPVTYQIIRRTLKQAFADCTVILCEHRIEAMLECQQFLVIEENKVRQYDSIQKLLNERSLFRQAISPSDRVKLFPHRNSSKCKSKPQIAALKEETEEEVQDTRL

Turning to `CC(C)C[C@H]1C(=O)N(C)C2(CC2)C(=O)N[C@H](Cc2ccccc2)COc2ccc3ncccc3c2C(=O)N[C@H](C(=O)NCCc2noc(C3CC3)n2)CC(=O)N1C` [Example 544, (3′S,7′S,13′R)-13′-benzyl-N-(2-(5-cyclopropyl-1,2,4-oxadiazol-3-yl)ethyl)-7′-isobutyl-6′,9′-dimethyl-1′,5′,8′,11′-tetraoxo-2′,3′,4′,5′,6′,7′,8′,9′,11′,12′,13′,14′-dodecahydro-1′H-spiro[cyclopropane-1,10′-[1]oxa[4,7,10,14]tetraazacycloheptadecino[16,17-f]quinoline]-3′-carboxamide], the EC50 was determined as 774 nM and the Emax is 398%.

For the compound `CC(C)C[C@H]1C(=O)N(C)C2(CC2)C(=O)N[C@H](Cc2ccccc2)COc2ccc3ncc(F)cc3c2C(=O)N[C@H](C(=O)NCCc2cc(C3CC3)no2)CC(=O)N1C` [Example 545, (3′S,7′S,13′R)-13′-benzyl-N-(2-(3-cyclopropylisoxazol-5-yl)ethyl)-20′-fluoro-7′-isobutyl-6′,9′-dimethyl-1′,5′,8′,11′-tetraoxo-2′,3′,4′,5′,6′,7′,8′,9′,11′,12′,13′,14′-dodecahydro-1′H-spiro[cyclopropane-1,10′-[1]oxa[4,7,10,14]tetraazacycloheptadecino[16,17-f]quinoline]-3′-carboxamide], the EC50 was 349 nM and the Emax was 385%.

In the case of `CC(C)C[C@H]1C(=O)N(C)C2(CC2)C(=O)N[C@H](Cc2ccccc2)COc2ccc3ncc(F)cc3c2C(=O)N[C@H](C(=O)NCCc2noc(C3CC3)n2)CC(=O)N1C` [Example 546, (3′S,7′S,13′R)-13′-benzyl-N-(2-(5-cyclopropyl-1,2,4-oxadiazol-3-yl)ethyl)-20′-fluoro-7′-isobutyl-6′,9′-dimethyl-1′,5′,8′,11′-tetraoxo-2′,3′,4′,5′,6′,7′,8′,9′,11′,12′,13′,14′-dodecahydro-1′H-spiro[cyclopropane-1,10′-[1]oxa[4,7,10,14]tetraazacycloheptadecino[16,17-f]quinoline]-3′-carboxamide], the EC50 was determined as 350 nM and the Emax worked out at 411%.

As to `Cc1cc(CCNC(=O)[C@@H]2CC(=O)N(C)[C@@H](CC(C)C)C(=O)N(C)[C@H](C(C)C)C(=O)N[C@H](Cc3ccccc3)COc3cnc4ccccc4c3C(=O)N2)on1` [Example 547, (3S,7S,10R,13R)-13-benzyl-7-isobutyl-10-isopropyl-6,9-dimethyl-N-(2-(3-methylisoxazol-5-yl)ethyl)-1,5,8,11-tetraoxo-1,2,3,4,5,6,7,8,9,10,11,12,13,14-tetradecahydro-[1]oxa[4,7,10,14]tetraazacycloheptadecino[17,16-c]quinoline-3-carboxamide], the EC50 is 281 nM and the maximum response (Emax) stood at 330%.

For `Cc1cc(CCNC(=O)[C@@H]2CC(=O)N(C)[C@@H](CC(C)C)C(=O)N(C)[C@H](CC(C)C)C(=O)N[C@H](Cc3ccccc3)COc3cnc4ccccc4c3C(=O)N2)on1` [Example 548, (3S,7S,10R,13R)-13-benzyl-7,10-diisobutyl-6,9-dimethyl-N-(2-(3-methylisoxazol-5-yl)ethyl)-1,5,8,11-tetraoxo-1,2,3,4,5,6,7,8,9,10,11,12,13,14-tetradecahydro-[1]oxa[4,7,10,14]tetraazacycloheptadecino[17,16-c]quinoline-3-carboxamide], the EC50 came to 106 nM and the maximal effect (Emax) was 326%.

For the compound `COc1cccc(CCNC(=O)[C@@H]2CC(=O)N(C)[C@@H](CC(C)C)C(=O)N3CCN(c4ccccc4)C[C@H]3C(=O)N[C@H](Cc3ccccc3)COc3ccnc(OC)c3C(=O)N2)c1` [Example 549, (7S,11S,20R,22aS)-20-benzyl-7-isobutyl-14-methoxy-N-(3-methoxyphenethyl)-8-methyl-6,9,13,22-tetraoxo-2-phenyl-1,3,4,6,7,8,9,10,11,12,13,19,20,21,22,22a-hexadecahydro-2H-pyrazino[2,1-f]pyrido[3,4-p][1]oxa[4,7,10,14]tetraazacycloheptadecine-11-carboxamide], the EC50 was found to be 166 nM and the Emax was determined as 167%.

Usually EC50 stands for the midpoint of the concentration-response curve. A word on the Emax: it is the size of the effect at its maximum, as opposed to the concentration needed.
